Measurements: US5472954A, “Cyclodextrin complexation” (priority 1993, dated 1995)
Converted amounts (≈) assume the structure as drawn. Like-named read-outs stand apart in the source and are kept apart here.

Tests used:
[1] = Solubility of various drugs: effect of CMC in aqueous HPβCD solutions (Example 1); conditions: for S4 /S3: 0.25% CMC + 10% HPβCD vs 10% HPβCD
[2] = physchem; conditions: aqueous 5% (w/v) γcd
[3] = 5% γCD
[4] = Effect of previously prepared solid HPβCD-polymer complexing agent on solubility (Example 13); type: physicochemical
Experimental: The resultant solutions were heated in sealed containers to 120° C. and maintained at that temperature for 30 minutes, then were lyophilized. The solids thus obtained were ground with a mortar and pestle.
The solid cyclodextrin/polymer products were reconstituted with water to afford solutions containing 9.88% (w/v) HPβCD and 0.12% (w/v) PVP, 0.12% (w/v) or CMC 0.12% (w/v) HPMC. The solubilities (S) of three drugs in these solutions and in an aqueous solution containing 10% (w/v) HPβCD without added polymer were then determined as follows:
An excess amount of each drug was added to each of the four cyclodextrin solutions and the solutions were sonicated in an ultrasonic bath for 3 hours, then allowed to equilibrate for 60 hours at room temperature (23° C.). […] However, by separate preparation of the cyclodextrin/polymer complexing agent as illustrated here, one can readily avoid heating drugs which are unstable at elevated temperature.

[5] = Effect of PVP on the solubilization of drugs in aqueous HPβCD solutions (Example 7); conditions: for S4 /S3: with vs without 0.25% PVP
[6] = type: physicochemical
From the text: (2) The apparent stability constants of the drug -cyclodextrin complexes were increased when the polymers were present in the aqueous cyclodextrin complexation media in accord with the present invention. […];

[7] = for flux (F) through hairless mouse skin: 37° C., mean ± standard deviation, 4 times
[8] = type: physicochemical; conditions: HPαCD MS 0.6 complex
Experimental: (§1) The effect of polyvinylpyrrolidone (PVP) on the enthalpy (ΔH) and the entropy (ΔS) of the stability constant (Kc) of the drug-cyclodextrin complex was determined.
(§2) An excess amount of the drug was added to water containing 0, 0.1, 0.25 or 0.5% (w/v) PVP and various amounts of HPβCD or HPαCD.

[9] = Dissolution of hydrocortisone from tablets, USP XXII paddle apparatus (Example 10); type: physicochemical; conditions: 3 minutes, 37° C.
Experimental: After equilibration for 3 days at room temperature, the suspensions were filtered through 0.45 μm membrane filters, the tiltrates were lyophilized and the solid which formed was ground with a mortar and pestle. The amount of hydrocortisone incorporated into the HPβCD complex was determined by HPLC.
Individual disks of 200 mg hydrocortisone-HPβCD complex were compressed in a hydraulic press under vacuum and a force of 1×10^4 kg for 1.5 minutes using a 13 mm (diameter) IR potassium bromide pellet punch.
The dissolution studies were carried out using a USP XXII described paddle apparatus for dissolution rate determination. The release rate was determined at 37±1° C. and 100 rpm by adding one tablet to 900 ml of water. Samples were withdrawn at various time intervals, filtered through 0.45 membrane filters and analyzed by HPLC.

[10] = Transdermal delivery of hydrocortisone in vitro, Franz diffusion cell (Example 15a); type: in vitro ADME, hairless mice; conditions: 0.25% (w/v) PVP vs no PVP, at maximum, HPβCD about 12% w/v
Experimental: . Female hairless mice were sacrificed by cervical dislocation and their full-thickness skins were removed and placed in Franz diffusion cells of type FDC 400 15FF, diameter 1.5 cm (Vangard International Inc., USA), containing 12.3 ml receptor phase. The receptor phase consisted of phosphate buffer saline pH 7.4 containing 0.3% (w/v) Brij-58™ and 0.4% (v/v) formaldehyde and was stirred with a magnetic bar. The receptor chamber was kept at 37° C. by circulating water through an external jacket. […]. After equilibration for three days, 2.0 ml of the donor phase was applied to the skin surface (the stratum corneum) and the donor chamber covered with Parafilm™ (a paraffin-coated plastic film). Samples of the receptor phase were removed from the cells, at 12 hour intervals, for three days and replaced with fresh buffer solution. The samples were kept frozen until analyzed by HPLC. Each experiment was repeated at least three times. The results depicted in FIG. 4 are the mean values ± standard error of the mean (SE).

[11] = ΔH, ΔS and stability constant (Kc) of drug-HPβCD MS 0.6 complexes, effect of PVP (Example 17); type: physicochemical; conditions: HPβCD MS 0.6 complex
Experimental: as §1, §2

## NC(=O)N1c2ccccc2C=Cc2ccccc21 [Carbamazepine, carbamazepine]
[1]
  S4 /S3: 1.31
[1]; 0.25% cmc + 10% hpbetacd
  solubility: 9200 µg/mL
[1]; aqueous 0.25% cmc
  solubility: 200 µg/mL (≈ 846 µM)
[1]; aqueous 10% hpbetacd
  solubility: 7000 µg/mL (≈ 29600 µM)
[1]; water
  solubility: 110 µg/mL (≈ 466 µM)
[2]
  solubility: 490 µg/mL (≈ 2070 µM)
[3]; CMC
  Scp /Sco: 1.33
[3]; HPMC
  Scp /Sco: 2.27
[3]; PVP
  Scp /Sco: 2.18
[4]; 9.88% hpbetacd + 0.12% cmc, 9.88% (w/v) HPβCD and 0.12% (w/v) CMC, read-out: S3 solubility
  solubility: 6660 µg/mL
[4]; 9.88% hpbetacd + 0.12% hpmc, 9.88% (w/v) HPβCD and 0.12% (w/v) HPMC, read-out: S4 solubility
  solubility: 9530 µg/mL
[4]; 9.88% hpbetacd + 0.12% pvp, 9.88% (w/v) HPβCD and 0.12% (w/v) PVP, read-out: S2 solubility
  solubility: 9800 µg/mL
[4]; 10% hpbetacd, 10% (w/v) HPβCD, read-out: S1 solubility
  solubility: 7000 µg/mL (≈ 29600 µM)
[5]; 0.25% pvp, 10% hpβcd
  solubility at 72 h: 7500 µg/mL (≈ 31700 µM)
[5]; 10% hpβcd ms 0.7
  solubility at 72 h: 6430 µg/mL (≈ 27200 µM)
[5]; aqueous 0.25% pvp
  solubility at 72 h: 310 µg/mL (≈ 1310 µM)
[5]; water
  solubility at 72 h: 110 µg/mL (≈ 466 µM)
[5]
  S4 /S3: 1.17

## C[C@@H]1C[C@H]2[C@@H]3CCC4=CC(=O)C=C[C@]4(C)[C@@]3(F)[C@@H](O)C[C@]2(C)[C@@]1(O)C(=O)CO [Dexamethasone, dexamethasone]
[1]
  S4 /S3: 1.04
[1]; 0.25% cmc + 10% hpbetacd
  solubility: 8750 µg/mL
[1]; aqueous 0.25% cmc
  solubility: 330 µg/mL (≈ 841 µM)
[1]; aqueous 10% hpbetacd
  solubility: 8430 µg/mL (≈ 21500 µM)
[1]; water
  solubility: 260 µg/mL (≈ 662 µM)
[6]
  increase in apparent stability constant: about 26%
[5]; 0.25% pvp, 10% hpβcd
  solubility at 72 h: 8000 µg/mL (≈ 20400 µM)
[5]; 10% hpβcd ms 0.7
  solubility at 72 h: 7530 µg/mL (≈ 19200 µM)
[5]; aqueous 0.25% pvp
  solubility at 72 h: 330 µg/mL (≈ 841 µM)
[5]; water
  solubility at 72 h: 260 µg/mL (≈ 662 µM)
[5]
  S4 /S3: 1.06

## C[C@]12CCC(=O)C=C1CC[C@@H]1[C@@H]2[C@@H](O)C[C@@]2(C)[C@H]1CC[C@]2(O)C(=O)CO [Hydrocortisone, hydrocortisone]
[7]; 6% (w/v) HPβCD MS 0.6 and 0.25% (w/v) PVP
  flux (F) through hairless mouse skin: 0.158 ± 0.035 μm/cm^2 /h
[7]; PVP-containing sample vs without PVP
  transdermal delivery: over two times faster
[7]; aqueous 8% (w/v) HPβCD MS 0.6
  flux (F) through hairless mouse skin: 0.075 ± 0.023 μm/cm^2 /h
[8]; PVP 0.00% w/v
  ΔH: -32.1 kJ/mol
  ΔS: -70.2 J mol^-1 K^-1
[8]; PVP 0.10% w/v
  ΔH: -39.3 kJ/mol
  ΔS: -94.5 J mol^-1 K^-1
[8]; PVP 0.25% w/v
  ΔH: -48.4 kJ/mol
  ΔS: -124.2 J mol^-1 K^-1
[8]; PVP 0.50% w/v
  ΔH: -35.7 kJ/mol
  ΔS: -81.9 J mol^-1 K^-1
[9]; HPβCD complex formed without CMC, average of four
  hydrocortisone dissolved: 68.3%
[9]; HPβCD complex with 0.1% (w/v) CMC
  hydrocortisone dissolved: 74.2%
[9]; HPβCD complex with 0.25% (w/v) CMC
  hydrocortisone dissolved: 81.0%
[10]
  flux increase with PVP: about 40%
[11]; PVP 0.00% w/v
  ΔH: -20.4 kJ/mol
  ΔS: -6.2 J mol^-1 K^-1
[11]; PVP 0.10% w/v
  ΔH: -41.0 kJ/mol
  ΔS: -68.6 J mol^-1 K^-1
[11]; PVP 0.25% w/v
  ΔH: -36.5 kJ/mol
  ΔS: -56.4 J mol^-1 K^-1
[11]; PVP 0.50% w/v
  ΔH: -38.8 kJ/mol
  ΔS: -64.9 J mol^-1 K^-1
